According to patent US10822349B2, “Macrocyclic purines for the treatment of viral infections” (JANSSEN SCIENCES IRELAND UNLIMITED COMPANY, priority 2012, dated 2020):
Read-outs that look alike come from different tables or passages of the source.

Experiments:
[1] = system: interferon production in human PBMC; assay: Interferon production in human PBMC, read out on HEK-ISRE-luc reporter cells; type: cell-based; details: Homo sapiens, PBMC, 24 h, lowest effective concentration, PBMC supernatant after overnight incubation transferred to HEK-ISRE-luc cells, read-out: PBMC HEK-ISRE-luc (LEC; μM)
In short: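 Human PBMCs from at least two donors (2×10^5/well, RPMI with 10% human AB serum) incubated overnight with compounds; conditioned supernatant transferred onto HEK-ISRE-luc reporter cells for 24 h. Luciferase read-out reported as LEC, with recombinant interferon alfa-2a as standard.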

[2] = molecular target: T1, human TLR7 (Homo sapiens, UniProt Q9NYK1); assay: TLR7 cellular reporter assay (HEK293 TLR7-NFκB-luc); type: cell-based; details: lowest effective concentration; HEK293 transiently transfected with TLR7 and NFκB-luc; 6 hours incubation
T1 construct: expressed in transfected cells; host or cells: HEK293
T1 sequence (Q9NYK1 27-1049): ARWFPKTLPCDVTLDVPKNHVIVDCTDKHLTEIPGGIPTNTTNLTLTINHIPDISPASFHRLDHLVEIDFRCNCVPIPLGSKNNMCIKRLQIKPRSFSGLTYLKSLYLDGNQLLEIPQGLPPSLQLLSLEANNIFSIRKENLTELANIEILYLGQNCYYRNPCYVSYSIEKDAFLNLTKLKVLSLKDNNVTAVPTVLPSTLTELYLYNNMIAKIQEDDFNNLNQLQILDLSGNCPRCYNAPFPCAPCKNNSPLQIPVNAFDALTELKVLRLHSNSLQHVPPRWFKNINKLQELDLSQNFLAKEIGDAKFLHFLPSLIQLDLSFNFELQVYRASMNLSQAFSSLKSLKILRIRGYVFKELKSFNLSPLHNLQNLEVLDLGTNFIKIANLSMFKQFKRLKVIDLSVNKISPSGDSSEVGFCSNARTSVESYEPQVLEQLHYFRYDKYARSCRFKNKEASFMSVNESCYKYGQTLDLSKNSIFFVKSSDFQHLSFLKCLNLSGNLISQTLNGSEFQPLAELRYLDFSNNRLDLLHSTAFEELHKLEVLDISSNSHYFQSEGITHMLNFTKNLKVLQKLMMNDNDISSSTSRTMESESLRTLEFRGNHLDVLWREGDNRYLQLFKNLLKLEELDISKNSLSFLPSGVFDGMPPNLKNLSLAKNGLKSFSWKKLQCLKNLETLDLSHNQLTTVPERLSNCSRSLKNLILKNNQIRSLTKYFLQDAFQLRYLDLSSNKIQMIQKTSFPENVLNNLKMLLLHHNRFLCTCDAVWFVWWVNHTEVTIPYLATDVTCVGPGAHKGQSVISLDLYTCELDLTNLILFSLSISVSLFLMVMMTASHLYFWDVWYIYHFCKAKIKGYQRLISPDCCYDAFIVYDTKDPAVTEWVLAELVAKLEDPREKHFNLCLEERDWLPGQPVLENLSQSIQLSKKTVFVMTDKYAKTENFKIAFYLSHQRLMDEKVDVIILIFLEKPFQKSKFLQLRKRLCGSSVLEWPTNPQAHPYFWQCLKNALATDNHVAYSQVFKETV
In short: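 HEK293 cells transiently co-transfected with CMV-TLR7 or TLR8 plasmid plus NFκB-luciferase reporter, 48 h post-transfection, then exposed to compound (added in 4% DMSO) for 6 h at 37 °C. Luciferase read-out; quadruplicate dose-response, LEC defined as concentration giving effect at least two-fold above assay SD.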

[3] = molecular target: T2, human TLR8 (Homo sapiens, UniProt Q9NR97); assay: TLR8 cellular reporter assay (HEK293 TLR8-NFκB-luc); type: cell-based; details: lowest effective concentration; HEK293 transiently transfected with TLR8 and NFκB-luc; 6 hours incubation
T2 construct: expressed in transfected cells; host or cells: HEK293
T2 sequence (Q9NR97 27-1041): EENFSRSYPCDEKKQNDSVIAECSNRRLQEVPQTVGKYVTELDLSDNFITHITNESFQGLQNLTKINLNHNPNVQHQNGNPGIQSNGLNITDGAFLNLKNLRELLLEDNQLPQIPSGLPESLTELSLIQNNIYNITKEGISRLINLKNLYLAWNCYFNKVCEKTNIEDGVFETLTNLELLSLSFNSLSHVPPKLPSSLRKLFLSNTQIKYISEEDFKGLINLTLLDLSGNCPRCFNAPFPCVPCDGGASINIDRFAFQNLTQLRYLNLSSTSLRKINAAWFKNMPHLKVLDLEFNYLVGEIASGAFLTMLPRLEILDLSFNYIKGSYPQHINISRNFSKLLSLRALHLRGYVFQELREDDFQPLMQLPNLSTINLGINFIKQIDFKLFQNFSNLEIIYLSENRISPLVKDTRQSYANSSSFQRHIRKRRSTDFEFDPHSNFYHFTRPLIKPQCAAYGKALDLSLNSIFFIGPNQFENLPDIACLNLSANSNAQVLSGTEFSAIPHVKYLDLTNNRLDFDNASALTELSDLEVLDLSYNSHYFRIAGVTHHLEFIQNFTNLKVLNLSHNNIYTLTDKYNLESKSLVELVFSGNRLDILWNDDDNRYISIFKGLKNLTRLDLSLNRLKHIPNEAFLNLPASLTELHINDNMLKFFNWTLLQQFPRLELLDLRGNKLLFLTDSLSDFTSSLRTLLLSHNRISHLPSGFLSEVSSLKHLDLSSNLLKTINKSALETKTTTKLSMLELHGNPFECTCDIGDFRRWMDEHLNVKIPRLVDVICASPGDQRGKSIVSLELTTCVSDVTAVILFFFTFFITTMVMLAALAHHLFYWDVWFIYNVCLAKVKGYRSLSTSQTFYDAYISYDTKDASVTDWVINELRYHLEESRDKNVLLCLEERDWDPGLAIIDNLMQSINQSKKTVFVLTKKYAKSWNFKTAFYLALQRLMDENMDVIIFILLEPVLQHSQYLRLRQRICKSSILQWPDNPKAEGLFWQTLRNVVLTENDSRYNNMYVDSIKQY
Description: The ability of compounds to activate human TLR7 and TLR8 was assessed in a cellular reporter assay using HEK293 cells transiently transfected with a TLR7 or TLR8 expression vector and NFκB-luc reporter construct. Briefly, HEK293 cells were grown in culture medium (DMEM supplemented with 10% FCS and 2 mM Glutamine). For transfection of cells in 10 cm dishes, cells were detached with Trypsin-EDTA, transfected with a mix of CMV-TLR7 or TLR8 plasmid (750 ng), NFκB-luc plasmid (375 ng) and a transfection reagent and incubated 48 hours at 37° C. in a humidified 5% CO2 atmosphere. Transfected cells were then detached with Trypsin-EDTA, washed in PBS and resuspended in medium to a density of 1.67×10^5 cells/mL. Thirty microliters of cells were then dispensed into each well in 384-well plates, where 10 μL of compound in 4% DMSO was already present. Following 6 hours incubation at 37° C., 5% CO2, the luciferase activity was determined by adding 15 μl of Steady Lite Plus substrate (Perkin Elmer) to each well and readout performed on a ViewLux ultraHTS microplate imager (Perkin Elmer). Dose response curves were generated from measurements performed in quadruplicates. Lowest effective concentrations (LEC) values, defined as the concentration that induces an effect which is at least two fold above the standard deviation of the assay, were determined for each compound.

[4] = rcm bond

HEK293 TLR7-NFκB-luc (LEC; μM) [2] [µM] | LEC on HEK293 TLR8-NFκB-luc [3] [µM] | Compound | minimal effective concentration [1] [µM] | also measured
1.16 | 20.46 | Nc1nc2nc3c1nc(O)n3Cc1ncccc1OCC/C=C\CO2 [Compound 39] | 0.22 | 
1.3 | > 19.49 | Nc1nc2nc3c1nc(O)n3Cc1ncccc1OCC/C=C/CO2 [Compound 40] | 0.15 | 
1.93 | 11.16 | Nc1nc2nc3c1nc(O)n3Cc1ncccc1/C=C\CCCO2 [Compound 41] | 0.48 | 

More lines, now with the values behind:

Compound | HEK293 TLR7-NFκB-luc (LEC; μM) [2] [µM] | LEC on HEK293 TLR8-NFκB-luc [3] [µM] | minimal effective concentration [1] [µM] | also measured
COc1cc2cc(c1)OC/C=C/COc1nc(N)c3nc(O)n(c3n1)C2 [Compound 75] | 0.0068 | 0.27 | 0.0026 | 
Nc1nc2nc3c1nc(O)n3Cc1ccccc1C/C=C/CCO2 [Compound 47] | 3.43 | 5.48 | 2.34 | 
CCOC(=O)N1CCc2cccc(c2)OCC=CCCOc2nc(N)c([N+](=O)[O-])c1n2 |  |  |  | ring closure, yield of all isomers ([4]; from C=CCCOc1nc(N)c([N+](=O)[O-])c(N(CCc2cccc(OCC=C)c2)C(=O)OCC)n1, Grubbs catalyst 2nd generation, CH2Cl2, 5.2 mM, 25.0 °C, 7.0 h): 52%
Nc1nc2nc3c1ncn3Cc1cccc(c1)CC=CCCO2 |  |  |  | ring closure, yield of all isomers ([4]; from C=CCCOc1nc(N)c2ncn(Cc3cccc(CC=C)c3)c2n1, Hoveyda-Grubbs 2nd generation (with chlorodicyclohexylborane), 1,2-dichloroethane, 2.98 mM, 120.0 °C, 23.0 h): 34%
CCOC(=O)N1CCc2cccc(c2)OCC=CCOc2nc(N)c([N+](=O)[O-])c1n2 |  |  |  | ring closure, yield of all isomers ([4]; from C=CCOc1cccc(CCN(C(=O)OCC)c2nc(OCC=C)nc(N)c2[N+](=O)[O-])c1, Grubbs 2nd generation, dichloromethane, 5.2 mM, 25.0 °C, 36.0 h): 56.5%
CCOC(=O)N1Cc2cccc(c2)CC=CCCCOc2nc(N)c([N+](=O)[O-])c1n2 |  |  |  | ring closure, yield of all isomers ([4]; from C=CCCCOc1nc(N)c([N+](=O)[O-])c(N(Cc2cccc(CC=C)c2)C(=O)OCC)n1, Grubbs catalyst 2nd generation, CH2Cl2, 3.13 mM, 25.0 °C, 2.0 h): 73%
